The source of these data is patent US20240390452A1, “Protective Agent Against Endothelial Dysfunction” (THE TRUSTEES OF THE UNIVERSITY OF PENNSYLVANIA, priority 2023, published 2024).

The test system of one assay is lung oxidative injury. The settings on record: earlier work; cited from earlier work.
Assay [1] concerns Human Pulmonary Microvascular Endothelial Cells (HPMVEC). It counts as cell-based. The following applies: HPMVEC pre-treated 3 hrs with PIP-2 in liposomes (10 nM), then COVID-19 serum 1 hr; CellROX fluorescence.
Assay [2] deals with NLRP3 subunit of the inflammasome. As to the kind of experiment: NLRP3 immunostaining in cells exposed to COVID-19 serum. In kind it is cell-based, human. The following applies: cells pre-treated 3 hrs with PIP-2, then COVID-19 serum 1 hr; anti-NLRP3 immunostaining. How it is done: (§1) Cells were pre-treated for 3 hrs with PIP-2 and then with COVID-19 serum/normal serum for an hour. Cells were then fixed and NLRP3/caspase-1 were monitored by immunostaining with anti-NLRP3 or activated caspase-1 antibody. FIG. 4A: NLRP3 immunostaining. FIG. 4B: Quantification of the fluorescent signal using Metamorph imaging software *p<0.001. FIG. 4C: Caspase-1 immunostaining. FIG. 4D: Quantification of the fluorescent signal using Metamorph imaging software *p<0.05.
(§2) HPMVEC were incubated for three hours in the incubator at 37° C. and 5% CO2 with medium supplemented with either liposomes alone or PIP-2 in liposomes (concentration 10 nM) without 10% FBS. After 3 hours of incubation, cells were either treated with serum of a healthy individual or COVID-19 patients at admission to ICU along with either liposomes alone or PIP-2 in liposomes together for one hour and three hours for ROS measurement and ICAM-1 induction respectively.

The subject of a further assay is caspase-1. The assay is described as follows: Activated caspase-1 immunostaining in cells exposed to COVID-19 serum. In kind it is cell-based, human. The following applies: cells pre-treated 3 hrs with PIP-2, then COVID-19 serum 1 hr; activated caspase-1 antibody immunostaining. Here is the method: as §1, §2
The target in assay [3] is T1, phospholipase A2 (PLA2) activity of peroxiredoxin 6 (Prdx6) (Homo sapiens, UniProt P30041).
T1 sequence (P30041 1-224): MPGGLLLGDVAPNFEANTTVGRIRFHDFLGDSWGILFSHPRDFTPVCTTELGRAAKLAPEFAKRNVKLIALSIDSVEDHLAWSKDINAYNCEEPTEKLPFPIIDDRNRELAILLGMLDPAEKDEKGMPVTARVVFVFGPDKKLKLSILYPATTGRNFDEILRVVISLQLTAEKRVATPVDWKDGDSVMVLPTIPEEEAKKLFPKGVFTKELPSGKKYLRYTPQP
The following applies: earlier work / WO 2020/037146 A1; cited from earlier work.

For a further assay, the system named is ICAM-1. The assay is described as follows: ICAM-1 immunostaining in HPMVEC exposed to COVID-19 serum. In kind it is cell-based, human. The following applies: HPMVEC pre-treated 3 hrs with PIP-2 in liposomes (10 nM), then COVID-19 serum; anti-ICAM immunostaining. Here is the method:
Primary cultures of Human Pulmonary Microvascular Endothelial Cells (HPMVEC) were grown in a T-25 culture dish and routinely maintained in Dulbecco's Modified Eagle Medium (DMEM) supplemented with 10% fetal bovine serum (FBS), 1× glutamax, 1× antibiotics, and endothelial cell growth supplement (Millipore Upstate). Cells were grown and maintained in 5% CO2 at 37° C. Once grown to the appropriate density, cells were then split and grown on coverslips in 35 mm petri dishes. Cells were then treated either with medium supplemented with 10% serum from healthy individuals or COVID-19 patients at admission to ICU and then monitored for ROS production and ICAM-1 induction as described below.
HPMVEC were incubated for one hour in the incubator at 37° C. and 5% CO2 with medium supplemented with 10% serum either from a healthy individual or from patients suffering from COVID-19. The serum replaced the FBS which was otherwise used as a supplement in DMEM. Post incubation, cells were either fixed for ICAM-1 immuno-staining or the cells were stained for ROS measurement as described below. Serum from one healthy individual and seven COVID-19 patients were used in this study.
HPMVEC were incubated for three hours in the incubator at 37° C. and 5% CO2 with medium supplemented with either liposomes alone or PIP-2 in liposomes (concentration 10 nM) without 10% FBS. […]

“Also recorded” adds a separate entry of the source.

Regarding `CCCCCCCCCCCCCCCCOCC(COCC(F)(F)F)OP(=O)(O)OC` (stereo not drawn) [MJ33], in the assay with lung oxidative injury, the “protection against lung oxidative injury” value is “able to protect against lung oxidative injury”.
For “LHDFRHQIL (in liposomes) [PIP-2, tested in liposomes]”, the “ROS production (endothelial activation) post COVID-19 serum exposure” value in assay [1] is “protected the endothelium from activation; also recorded: significant decrease; also recorded: decreased; also recorded: able to reduce the endothelial activation; also recorded: significantly reverse”. Moreover, the NLRP3 expression result in assay [2] was “significantly reduced; also recorded: decreased”. The “caspase 1 expression” value in the assay with caspase-1 was “significantly reduced; also recorded: decreased”. Moreover, in assay [3], the “inhibition of PLA2 (aiPLA2) activity of Prdx6” value is on record as “specific for inhibition of aiPLA2 activity”. Moreover, the “ICAM-1 expression (endothelial inflammatory phenotype)” value with ICAM-1 is “prevented the appearance of an endothelial inflammatory phenotype; also recorded: significantly reduced; also recorded: decreased; also recorded: significantly reverse”.
